ChEMBL document CHEMBL1201862, “PubChem BioAssay data set” (2004)
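Test compounds were applied to cells in 96-well plates for 48 hours at 5 doses. GI50 = concentration required for 50% inhibition of growth.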 Calls of active or inactive are those of the source. No stated cut-off is given here; in the data, active = GI50 up to about 1.1 µM and inactive = higher.

Key:
Experiment in all cases: NCI tumour cell line growth inhibition, 48 h
DLD-1 = test system: DLD-1
DMS-273 = test system: DMS-273
M19-MEL = test system: M19-MEL
DU-145 = test system: DU-145
NCI/ADR-RES = test system: NCI/ADR-RES
PC-3 = test system: PC-3
T47D = test system: T47D
HOP-18 = test system: HOP-18

| SMILES | GI50 (DLD-1) | GI50 (DMS-273) | GI50 (M19-MEL) | GI50 (DU-145) | GI50 (NCI/ADR-RES) | GI50 (PC-3) | GI50 (T47D) | GI50 (HOP-18) |
| --- | --- | --- | --- | --- | --- | --- | --- | --- |
| Cn1c(=O)n(CC2CS2)c2ccccc21 (stereo unspecified) | > 100 µM (inactive) | > 100 µM (inactive) | > 100 µM (inactive) |  |  |  |  |  |
| CC(C)(C)[Si](C)(C)OCC1OC(n2cnc3c(N)ncnc32)C2OC(=S)OC12 (stereo unspecified) |  |  |  | 25.1 µM (inactive) | 23.5 µM (inactive) | 22 µM (inactive) |  |  |
| CCCOP(=O)(OCCC)OC(C(F)(F)F)C(F)(F)F |  |  |  | > 100 µM (inactive) |  |  | > 100 µM (inactive) |  |
| CN1Cc2cc(O)c(O)cc2C(O)C1 (stereo unspecified) |  |  |  | > 100 µM (inactive) | > 100 µM (inactive) | > 100 µM (inactive) | > 100 µM (inactive) |  |
| O=C(c1ccccc1)[C@H]1Nc2ccc(Cl)cc2[C@H]2OCCC[C@@H]12 |  | 19.3 µM (inactive) | 23 µM (inactive) |  |  |  |  | 18.5 µM (inactive) |
| COc1cc(C2C3=C(CCC3=O)Oc3cc4c(cc32)OCO4)cc(OC)c1OC (stereo unspecified) |  | 0.158 µM (active) | 0.412 µM (active) |  |  |  |  | > 100 µM (inactive) |
| O=C(Nc1ccccc1)C(=O)C(C(=O)c1ccccc1F)C1OC(=O)c2ccccc21 (stereo unspecified) | 41.9 µM (inactive) | 31.3 µM (inactive) | 30.1 µM (inactive) |  |  |  |  |  |
